In US8835134B2, “Cycloastragenol monoglucoside, preparation, pharmaceutical composition and application thereof” (Tianjin Institute of Pharmaceutical Research, priority 2007, dated 2014):

System: anesthetized open-chest dogs
Experiment: Hemodynamics of anesthetized open-chest dogs, intravenous infusion
Format: in vivo, mongrel dogs
Settings: 0.3 mg/kg iv
Procedure: The animals were anesthetized by intravenous injection of 30 mg/kg sodium pentobarbital, tracheally intubated, and mechanically ventilated with positive air pressure. Left thoracotomy was performed through the fourth intercostal space and the heart was suspended in a pericardial cradle, the aortic root was isolated and a probe of blood flow meter (12 or 14 mm in diameter) was fixed to measure the aortic blood flow as a representation of cardiac output (CO), the circumflex branch of left coronary artery was isolated and a probe of blood flow meter (2 or 2.5 mm in diameter) was fixed to measure the coronary blood flow (CBF). A polyethylene catheter filled with heparin physiological saline was inserted through cardiac apex into the left ventricle to measure the left ventricular pressure (LVP) and left ventricular end-diastolic pressure (LVEDP), Peak positive and peak negative first derivatives of the LVP (+ LVdp/dt and − LVdp/dt) were calculated with the Acknowledge software. The systolic blood pressure (SBP), diastolic blood pressure (DBP) and mean arterial pressure (MAP) were measured by polyethylene catheter via the femoral artery, ECG □ was measured by a AC-601G ECG amplifier. The above-mentioned analog signal was input into a data acquisition workstation (MP100, BIOPAC Systems, USA) to a computer running Acknowledge (version 3.7.1).
After surgery, various indexes before administration were recorded until the indexes were stable, and then intravenous infusion administration was conducted. Thirty dogs were divided into five groups (six dogs in each group), the experiment groups were given 0.15, 0.3, 0.6 mg/kg of ASP-[…] respectively, the normal control group was given 1 ml/kg of solvent, and the positive control group was given 0.3 mg/kg of astragaloside IV. The delivery volumes were 15 ml for each dog was and the delivery velocity was 1 ml/min. The indexes were recorded at 5, 10, 15, 20, 30, 45, 60, 90 and 120 mins after drug administration. At the end of experiment, the hearts were excised and weighted. The myocardial blood flow for per hectogram (CF), coronary resistance (CR), cardiac index (CI), left ventricular work (LVW) and total peripheral resistance (TPR) were calculated according to the following formulae: CF=CBF×[…]/heart weight CR=MAP/CF CI=CO/0.11×(body weight)^2/3 LVW=CO×(MAP−5)×1.052×0.0136 TPR=MAP×79.92/CO
Data are expressed as mean±SD ( x±s), the paired t-test was used to compare the significance between before and after administration, the unpaired t-test was adopted for comparison between groups.

SMILES: CC(C)(O)[C@@H]1CC[C@](C)([C@H]2[C@@H](O)C[C@@]3(C)[C@@H]4C[C@H](O[C@@H]5O[C@H](CO)[C@@H](O)[C@H](O)[C@H]5O)[C@H]5C(C)(C)[C@@H](O[C@@H]6OC[C@@H](O)[C@H](O)[C@H]6O)CC[C@@]56C[C@@]46CC[C@]23C)O1 [astragaloside IV, reference compound]
- +LVdp/dtmax: significantly increased
- CO, CI and TPR: no significant effect
- LVEDP: significantly decreased
- LVSP, LVW and −LVdp/dtmax: no significant change
- CF (5 min after administration): 57.2 ± 14.0 ml/min/100 g
- CF change vs before administration (5 min after administration): (0.2 ± 3.5) ml/min/100 g
- CI (5 min after administration): 2.20 ± 0.59 L/min/m^2
- CI change vs before administration (5 min after administration): (0.06 ± 0.10) L/min/m^2
- CO (5 min after administration): 1.23 ± 0.36 L/min
- CO change vs before administration (5 min after administration): (0.03 ± 0.05) L/min
- CR (5 min after administration): 1.36 ± 0.47 mmHg/ml/min/100 g
- CR change vs before administration (5 min after administration): (−0.05 ± 0.07) mmHg/ml/min/100 g
- LVEDP (5 min after administration): 1.6 ± 1.4 mmHg
- LVEDP change vs before administration (5 min after administration): (−0.80 ± 0.81) mmHg
- LVP (5 min after administration): 104 ± 10 mmHg
- LVP change vs before administration (5 min after administration): (1.1 ± 6.5) mmHg
- LVW (5 min after administration): 1.22 ± 0.47 kg · m
- LVW change vs before administration (5 min after administration): (0.01 ± 0.05) kg · m
- TPR (5 min after administration): 5046 ± 1572 dyn · s/cm^5
- TPR change vs before administration (5 min after administration): (−178 ± 384) dyn · s/cm^5
- dp/dt (5 min after administration): 1082 ± 176 mmHg/s
- dp/dt change vs before administration (5 min after administration): (27 ± 75) mmHg/s
- −dp/dt (5 min after administration): −878 ± 179 mmHg/s
- −dp/dt change vs before administration (5 min after administration): (−43 ± 104) mmHg/s
- CF (10 min after administration): 59.0 ± 20.5 ml/min/100 g
- CF change vs before administration (10 min after administration): (2.0 ± 6.5) ml/min/100 g
- CI (10 min after administration): 2.21 ± 0.52 L/min/m^2
- CI change vs before administration (10 min after administration): (0.07 ± 0.08) L/min/m^2
- CO (10 min after administration): 1.24 ± 0.32 L/min
- CO change vs before administration (10 min after administration): (0.04 ± 0.05) L/min
- CR (10 min after administration): 1.39 ± 0.45 mmHg/ml/min/100 g
- CR change vs before administration (10 min after administration): (−0.01 ± 0.12) mmHg/ml/min/100 g
- LVEDP (10 min after administration): 1.7 ± 1.3 mmHg
- LVEDP change vs before administration (10 min after administration): (−0.73 ± 0.54) mmHg
- LVP (10 min after administration): 105 ± 10 mmHg
- LVP change vs before administration (10 min after administration): (2.5 ± 11.7) mmHg
- LVW (10 min after administration): 1.26 ± 0.39 kg · m
- LVW change vs before administration (10 min after administration): (0.05 ± 0.13) kg · m
- TPR (10 min after administration): 5162 ± 1495 dyn · s/cm^5
- TPR change vs before administration (10 min after administration): (−62 ± 517) dyn · s/cm^5
- dp/dt (10 min after administration): 1141 ± 136 mmHg/s
- dp/dt change vs before administration (10 min after administration): (86 ± 61) mmHg/s
- −dp/dt (10 min after administration): −882 ± 163 mmHg/s
- −dp/dt change vs before administration (10 min after administration): (−46 ± 118) mmHg/s
- CF (15 min after administration): 57.0 ± 22.3 ml/min/100 g
- CF change vs before administration (15 min after administration): (0.0 ± 7.2) ml/min/100 g
- CI (15 min after administration): 2.16 ± 0.51 L/min/m^2
- CI change vs before administration (15 min after administration): (0.02 ± 0.07) L/min/m^2
- CO (15 min after administration): 1.21 ± 0.30 L/min
- CO change vs before administration (15 min after administration): (0.01 ± 0.04) L/min
- CR (15 min after administration): 1.46 ± 0.50 mmHg/ml/min/100 g
- CR change vs before administration (15 min after administration): (0.06 ± 0.15) mmHg/ml/min/100 g
- LVEDP (15 min after administration): 1.0 ± 1.2 mmHg
- LVEDP change vs before administration (15 min after administration): (−1.40 ± 0.54) mmHg
- LVP (15 min after administration): 103 ± 12 mmHg
- LVP change vs before administration (15 min after administration): (−0.3 ± 12.2) mmHg
- LVW (15 min after administration): 1.22 ± 0.35 kg · m
- LVW change vs before administration (15 min after administration): (0.01 ± 0.16) kg · m
- TPR (15 min after administration): 5319 ± 1695 dyn · s/cm^5
- TPR change vs before administration (15 min after administration): (95 ± 662) dyn · s/cm^5
- dp/dt (15 min after administration): 1167 ± 157 mmHg/s
- dp/dt change vs before administration (15 min after administration): (112 ± 31) mmHg/s
- −dp/dt (15 min after administration): −847 ± 141 mmHg/s
- −dp/dt change vs before administration (15 min after administration): (−12 ± 124) mmHg/s
- CF (20 min after administration): 59.1 ± 21.2 ml/min/100 g
- CF change vs before administration (20 min after administration): (2.1 ± 7.3) ml/min/100 g
- CI (20 min after administration): 2.15 ± 0.44 L/min/m^2
- CI change vs before administration (20 min after administration): (0.00 ± 0.10) L/min/m^2
- CO (20 min after administration): 1.20 ± 0.27 L/min
- CO change vs before administration (20 min after administration): (0.00 ± 0.06) L/min
- CR (20 min after administration): 1.37 ± 0.42 mmHg/ml/min/100 g
- CR change vs before administration (20 min after administration): (−0.03 ± 0.16) mmHg/ml/min/100 g
- LVEDP (20 min after administration): 1.0 ± 1.1 mmHg
- LVEDP change vs before administration (20 min after administration): (−1.46 ± 0.68) mmHg
- LVP (20 min after administration): 104 ± 11 mmHg
- LVP change vs before administration (20 min after administration): (1.2 ± 16.2) mmHg
- LVW (20 min after administration): 1.2 ± 0.31 kg · m
- LVW change vs before administration (20 min after administration): (−0.01 ± 0.22) kg · m
- TPR (20 min after administration): 5203 ± 1464 dyn · s/cm^5
- TPR change vs before administration (20 min after administration): (−21 ± 735) dyn · s/cm^5
- dp/dt (20 min after administration): 1165 ± 112 mmHg/s
- dp/dt change vs before administration (20 min after administration): (110 ± 67) mmHg/s
- −dp/dt (20 min after administration): −875 ± 105 mmHg/s
- −dp/dt change vs before administration (20 min after administration): (−39 ± 142) mmHg/s
- CF (30 min after administration): 57.8 ± 16.6 ml/min/100 g
- CF change vs before administration (30 min after administration): (0.8 ± 3.2) ml/min/100 g
- CI (30 min after administration): 2.08 ± 0.48 L/min/m^2
- CI change vs before administration (30 min after administration): (−0.07 ± 0.17 ^ L/min/m^2
- CO (30 min after administration): 1.16 ± 0.29 L/min
- CO change vs before administration (30 min after administration): (−0.04 ± 0.09) L/min
- CR (30 min after administration): 1.41 ± 0.47 mmHg/ml/min/100 g
- CR change vs before administration (30 min after administration): (0.00 ± 0.13) mmHg/ml/min/100 g
- LVEDP (30 min after administration): 1.0 ± 1.4 mmHg
- LVEDP change vs before administration (30 min after administration): (−1.44 ± 0.90) mmHg
- LVP (30 min after administration): 102 ± 11 mmHg
- LVP change vs before administration (30 min after administration): (−0.7 ± 13.7) mmHg
- LVW (30 min after administration): 1.19 ± 0.40 kg · m
- LVW change vs before administration (30 min after administration): (−0.02 ± 0.15) kg · m
